Active and inactive are the calls of the source. No cut-off for these calls is given here.
Assays:
[1] = molecular target: Serine/threonine-protein kinase Chk2 (Homo sapiens) (UniProt O96017); experiment: Inhibition of human CHK2 kinase expressed in insect Sf21 cells using phospho-CREBtide as substrate at 30 uM
[2] = molecular target: T1, Inhibitor of nuclear factor kappa-B kinase subunit alpha (Homo sapiens) (UniProt O15111); conditions: Sf21, 30 uM
T1 sequence (whole entry): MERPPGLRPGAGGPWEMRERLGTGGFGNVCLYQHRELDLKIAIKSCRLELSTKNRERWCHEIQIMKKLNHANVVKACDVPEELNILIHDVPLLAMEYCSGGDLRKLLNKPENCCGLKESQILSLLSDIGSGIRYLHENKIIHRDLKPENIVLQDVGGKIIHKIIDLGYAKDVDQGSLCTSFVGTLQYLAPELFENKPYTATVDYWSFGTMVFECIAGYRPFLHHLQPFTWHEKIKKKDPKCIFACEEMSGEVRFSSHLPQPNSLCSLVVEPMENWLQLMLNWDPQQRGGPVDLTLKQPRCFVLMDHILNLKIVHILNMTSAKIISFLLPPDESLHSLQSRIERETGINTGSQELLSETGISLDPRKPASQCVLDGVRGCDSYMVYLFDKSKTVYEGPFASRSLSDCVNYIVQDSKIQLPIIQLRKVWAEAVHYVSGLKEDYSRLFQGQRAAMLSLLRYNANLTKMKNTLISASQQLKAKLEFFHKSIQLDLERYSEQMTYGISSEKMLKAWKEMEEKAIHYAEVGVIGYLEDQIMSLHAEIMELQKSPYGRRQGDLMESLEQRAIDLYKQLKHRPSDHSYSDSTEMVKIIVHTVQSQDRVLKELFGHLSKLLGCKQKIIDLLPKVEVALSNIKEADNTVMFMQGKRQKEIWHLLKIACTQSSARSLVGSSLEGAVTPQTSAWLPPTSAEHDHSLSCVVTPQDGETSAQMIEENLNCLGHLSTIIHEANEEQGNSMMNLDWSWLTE
Description: Inhibition of human recombinant IKK-alpha expressed in insect Sf21 cells using phospho-Ulight-IkappaB-alpha as substrate at 30 uM

[3] = molecular target: T2, Inhibitor of nuclear factor kappa-B kinase subunit beta (Homo sapiens) (UniProt O14920); conditions: Sf21, 30 uM
T2 sequence (whole entry): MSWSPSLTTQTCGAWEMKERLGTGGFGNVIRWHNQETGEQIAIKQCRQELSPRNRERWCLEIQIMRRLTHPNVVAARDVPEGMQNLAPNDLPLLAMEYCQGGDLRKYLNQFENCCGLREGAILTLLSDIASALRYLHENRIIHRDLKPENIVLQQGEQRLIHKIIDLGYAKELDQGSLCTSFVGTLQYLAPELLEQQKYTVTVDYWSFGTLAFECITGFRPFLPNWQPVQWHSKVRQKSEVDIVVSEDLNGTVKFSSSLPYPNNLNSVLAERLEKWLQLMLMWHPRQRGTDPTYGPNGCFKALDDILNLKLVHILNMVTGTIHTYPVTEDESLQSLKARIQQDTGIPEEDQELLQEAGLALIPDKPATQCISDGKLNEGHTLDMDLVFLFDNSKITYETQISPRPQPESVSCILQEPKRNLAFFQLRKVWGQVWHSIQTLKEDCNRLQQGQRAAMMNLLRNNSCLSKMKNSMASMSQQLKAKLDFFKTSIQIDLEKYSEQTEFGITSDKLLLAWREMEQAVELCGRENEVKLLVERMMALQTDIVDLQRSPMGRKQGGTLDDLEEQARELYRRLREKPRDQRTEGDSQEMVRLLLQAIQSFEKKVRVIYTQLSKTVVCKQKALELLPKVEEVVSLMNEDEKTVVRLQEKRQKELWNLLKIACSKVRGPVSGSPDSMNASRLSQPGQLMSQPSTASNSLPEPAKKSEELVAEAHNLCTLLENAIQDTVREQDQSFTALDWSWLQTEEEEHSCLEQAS
Description: Inhibition of human recombinant IKK-beta expressed in insect Sf21 cells using phospho-Ulight-IkappaB-alpha as substrate at 30 uM

Mus musculus [4] = species: Mus musculus; conditions: Swiss, Ear, at 10 µmol/kg
Mus musculus [5] = experiment: Antiinflammatory activity in Swiss mouse assessed as inhibition of arachidonic acid-induced ear edema at 10 to 100 umol/kg, ip administered 60 mins before arachidonic acid challenge measured after 1 to 6 hrs by electronic digital caliper; format: functional, organism-based
[6] = molecular target: T3, Inhibitor of nuclear factor kappa-B kinase subunit beta (Homo sapiens, UniProt O14920); experiment: Inhibition of human recombinant IKK-beta expressed in insect Sf21 cells using phospho-Ulight-IkappaB-alpha as substrate
T3 sequence (O14920 whole entry): T2 sequence (whole entry)

Sequence of Serine/threonine-protein kinase Chk2 (Homo sapiens) (O96017 whole entry): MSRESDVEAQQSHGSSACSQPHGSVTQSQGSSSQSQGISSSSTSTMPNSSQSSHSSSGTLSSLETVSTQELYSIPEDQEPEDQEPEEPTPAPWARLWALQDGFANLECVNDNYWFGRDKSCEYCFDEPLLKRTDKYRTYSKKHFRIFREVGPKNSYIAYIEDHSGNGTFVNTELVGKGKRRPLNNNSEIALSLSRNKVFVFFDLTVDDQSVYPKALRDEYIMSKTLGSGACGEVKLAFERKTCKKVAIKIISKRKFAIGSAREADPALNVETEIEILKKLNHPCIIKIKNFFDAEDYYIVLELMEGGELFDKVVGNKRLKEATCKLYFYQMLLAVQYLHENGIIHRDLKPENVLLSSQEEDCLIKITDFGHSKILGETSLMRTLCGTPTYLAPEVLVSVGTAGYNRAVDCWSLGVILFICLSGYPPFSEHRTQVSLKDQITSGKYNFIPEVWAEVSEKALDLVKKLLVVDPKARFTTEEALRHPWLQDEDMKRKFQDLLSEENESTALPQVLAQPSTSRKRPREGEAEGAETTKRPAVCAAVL

SMILES | inhibition [1] [%] | inhibition [2] [%] | inhibition [3] [%] | inhibition (Mus musculus [4]) | inhibition (Mus musculus [5]) | IC50 [6] [µM]
COC(=O)c1ccc(/C=N/NC(=O)c2ccc3ccccc3c2)cc1 | 0 | 0 | 0 |  |  | 
O=C(O)c1ccc(/C=N/NC(=O)c2ccc3ccccc3c2)cc1 | 0 | 0 | 0 |  |  | 
NC(=O)c1sc(-c2ccsc2)cc1N |  |  |  | Active |  | 
O=C(N/N=C/c1ccc([N+](=O)[O-])cc1)c1ccc2ccccc2c1 | 0 | 0 | 1.2 | Active | Dose-dependent effect | 20

From ChEMBL document CHEMBL1759967, “Structure-based design and biological profile of (E)-N-(4-Nitrobenzylidene)-2-naphthohydrazide, a novel small molecule inhibitor of IκB kinase-β” (Eur J Med Chem, 2011)
